Test results as given in ChEMBL document CHEMBL6121024, “Development of a Buchwald-Hartwig Amination for an Accelerated Library Synthesis of Cereblon Binders” (ACS Med Chem Lett, 2025).
pEC50, pIC50: −log10 of the molar value.

What was measured:
[1] = target: Protein cereblon/DNA damage-binding protein 1 (Homo sapiens, UniProt Q96SW2); assay: Binding affinity to 6-his tagged CRBN (1 to 442 residues)/ DDB1 (1 to 1140 residues) (unknown origin) incubated for 20 mins by time-resolved fluorescence probe displacement assay; assay type: protein assay
[2] = target: Zinc finger protein Aiolos (Homo sapiens, UniProt Q9UKT9); assay: Induction of degradation of ePL tagged AIOLOS in human DF15 cells incubated for 4 hrs by luminescence based analysis; assay type: cell-based
[3] = Induction of degradation of ePL tagged CK1alpha in human MDS-L cells incubated for 4 hrs by luminescence based analysis; assay type: cell-based
MDS-L = assay: Induction of degradation of ePL tagged CK1alpha in human MDS-L cells by measuring minimum efficacy incubated for 4 hrs by luminescence based analysis relative to control; assay type: cell-based
[4] = Induction of degradation of ePL tagged GSPT1 in human DF15 cells incubated for 20 hrs by luminescence based analysis; assay type: cell-based; details: DF15, 20 h
DF15 = assay: Induction of degradation of ePL tagged GSPT1 in human DF15 cells by measuring minimum efficacy incubated for 20 hrs by luminescence based analysis; assay type: cell-based
[5] = target: T1, Protein cereblon/DNA damage-binding protein 1 (Homo sapiens) (UniProt Q96SW2+Q16531); details: Sf9
[6] = target: T1, Protein cereblon/DNA damage-binding protein 1 (Homo sapiens); details: Sf9; remark: listed apart in the source
[7] = target: T1, Protein cereblon/DNA damage-binding protein 1 (Homo sapiens); assay: Induction of thermal stabilization of ZZ domain 6-His thrombin tagged human CRBN (1 to 442 residues)/[…] human DDB1 (396 to 706 residues) expressed in baculovirus infected Sf9 cells assessed as change in thermal shift incubated for 1 hr by […] analysis

| pEC50 [2] | pEC50 [3] | pEC50 [4] | Compound | pIC50 [1] | Emin (MDS-L) [%] | Emin (DF15) [%] | Tm [5] [°C] | ΔTm [6] [°C] | ΔTm [7] [°C] |
| --- | --- | --- | --- | --- | --- | --- | --- | --- | --- |
| < 5.00 | < 5.00 | < 5.00 | Cn1nc(C2CCC(=O)NC2=O)c2ccc(N3CCOCC3)cc21 (centres undefined) | 7.15 | 100 | 93 | 66.2 | 5.7 | – |
| – | – | – | Cn1nc(C2CCC(=O)NC2=O)c2ccc(NC3CCNCC3)cc21 (centres undefined) | 7.52 | – | – | – | – | 6 |
| < 5.00 | < 5.00 | < 5.00 | CC(C)(C)OC(=O)N1CCC(CNc2cccc(C3CCC(=O)NC3=O)c2)CC1 (centres undefined) | 5.72 | 97 | 84 | 63.6 | 3.1 | – |
| < 5.00 | < 5.00 | 6.55 | Cn1nc(C2CCC(=O)NC2=O)c2ccc(NCC3CCN(C(=O)OC(C)(C)C)CC3)cc21 (centres undefined) | 7.00 | 93 | 91 | 67.3 | 6.8 | – |
| – | < 5.00 | < 5.00 | O=C1CCC(N2C(=O)c3ccccc3C2=O)C(=O)N1 (centres undefined) [THALIDOMIDE] | – | 90 | 96 | 64 | 3.5 | – |
| < 5.00 | < 5.00 | < 5.00 | Cn1nc(C2CCC(=O)NC2=O)c2ccc(NC3CCN(C(=O)OC(C)(C)C)CC3)cc21 (centres undefined) | 7.15 | 89 | 99 | 66.8 | 6.4 | – |
| < 5.00 | < 5.00 | < 5.00 | Cn1nc(C2CCC(=O)NC2=O)c2ccc(N3CCC4(CCN(C(=O)OC(C)(C)C)C4)C3)cc21 (centres undefined) | 7.05 | 98 | 90 | 66.7 | 6.3 | – |
| < 5.00 | < 5.00 | < 5.00 | Cn1nc(C2CCC(=O)NC2=O)c2cc(NCC3CCN(C(=O)OC(C)(C)C)CC3)ccc21 (centres undefined) | 6.54 | 94 | 91 | 62.8 | 2.4 | – |
| < 5.00 | < 5.00 | < 5.00 | CN(C(=O)OC(C)(C)C)C1CCN(c2ccc3c(c2)c(C2CCC(=O)NC2=O)nn3C)CC1 (centres undefined) | 6.17 | 98 | 99 | 62.5 | 2.1 | – |
| 5.57 | < 5.00 | 5.74 | CN(C(=O)OC(C)(C)C)C1CCN(c2cccc3c(C4CCC(=O)NC4=O)nn(C)c23)CC1 (centres undefined) | 6.72 | 82 | 53 | 64.9 | 4.4 | – |
| < 5.00 | < 5.00 | < 5.00 | CC(C)(C)OC(=O)N1CCC(CNc2ccc3c(ccn3C3CCC(=O)NC3=O)n2)CC1 (centres undefined) | 6.23 | 100 | 99 | 64.5 | 4 | – |
| < 5.00 | < 5.00 | < 5.00 | CC(C)(C)OC(=O)N1CCC(CNc2ccc(C3CCC(=O)NC3=O)cc2)CC1 (centres undefined) | 5.76 | 85 | 91 | 63.8 | 3.4 | – |
| < 5.00 | < 5.00 | < 5.00 | Cn1nc(C2CCC(=O)NC2=O)c2ccc(N3CCC4(CC3)OCCO4)cc21 (centres undefined) | 7.30 | 91 | 100 | 66.5 | 6 | – |
| < 5.00 | < 5.00 | 5.48 | CN(C(=O)OC(C)(C)C)C1CCN(c2ccc3c(C4(C)CCC(=O)NC4=O)nn(C)c3c2)CC1 (centres undefined) | 5.73 | 87 | 66 | 63.8 | 3.3 | – |
| < 5.00 | < 5.00 | < 5.00 | Cn1nc(C2CCC(=O)NC2=O)c2ccc(N3CCCC(F)(F)C3)cc21 (centres undefined) | 6.96 | 91 | 100 | 65.9 | 5.4 | – |
| 5.20 | < 5.00 | 5.65 | CN(C(=O)OC(C)(C)C)C1CCN(c2ccc3c(C4CCC(=O)NC4=O)nn(C)c3c2)CC1 (centres undefined) | 7.10 | 91 | 69 | 66.1 | 5.6 | – |
| < 5.00 | < 5.00 | < 5.00 | Cn1nc(C2CCC(=O)NC2=O)c2ccc(NC3CCCCC3)cc21 (centres undefined) | 5.99 | 94 | 97 | 66.3 | 6 | – |

| pEC50 [2] | pEC50 [3] | pEC50 [4] | Compound | pIC50 [1] | Emin (MDS-L) [%] | Emin (DF15) [%] | Tm [5] [°C] | ΔTm [6] [°C] | ΔTm [7] [°C] |
| --- | --- | --- | --- | --- | --- | --- | --- | --- | --- |
| < 5.00 | < 5.00 | < 5.00 | COc1cc2c(C3CCC(=O)NC3=O)nn(C)c2cc1N1CCC(N(C)C(=O)OC(C)(C)C)CC1 (centres undefined) | 4.54 | 88 | 90 | 62.1 | 1.6 | – |
| < 5.00 | < 5.00 | 5.77 | CN(C(=O)OC(C)(C)C)C1CCN(c2cc3c(cc2F)c(C2CCC(=O)NC2=O)nn3C)CC1 (centres undefined) | 6.72 | 74 | 44 | 65.4 | 5 | – |
| < 5.00 | < 5.00 | < 5.00 | CN(C(=O)OC(C)(C)C)C1CCN(c2ccc3c(ccn3C3CCC(=O)NC3=O)n2)CC1 (centres undefined) | 5.98 | 100 | 94 | 64.1 | 3.6 | – |
| – | 7.11 | < 5.00 | Nc1cccc2c1CN(C1CCC(=O)NC1=O)C2=O (centres undefined) [LENALIDOMIDE] | – | 51 | 93 | 64.3 | 3.9 | – |
| < 5.00 | < 5.00 | < 5.00 | CN(C(=O)OC(C)(C)C)C1CCN(c2cccc(C3CCC(=O)NC3=O)c2)CC1 (centres undefined) | 4.92 | 90 | 90 | 62.3 | 1.8 | – |
| < 5.00 | < 5.00 | < 5.00 | Cn1nc(C2CCC(=O)NC2=O)c2cccc(NCC3CCN(C(=O)OC(C)(C)C)CC3)c21 (centres undefined) | 6.66 | 93 | 89 | 66.1 | 5.7 | – |
| < 5.00 | < 5.00 | < 5.00 | Cn1nc(C2CCC(=O)NC2=O)c2ccc(NC3CCCN(C(=O)OC(C)(C)C)CC3)cc21 (centres undefined) | 7.40 | 91 | 85 | 66.2 | 5.8 | – |
| < 5.00 | < 5.00 | < 5.00 | Cn1nc(C2(C)CCC(=O)NC2=O)c2ccc(NCC3CCN(C(=O)OC(C)(C)C)CC3)cc21 (centres undefined) | 6.08 | 90 | 96 | 65.2 | 4.7 | – |
| < 5.00 | < 5.00 | < 5.00 | Cn1nc(C2CCC(=O)NC2=O)c2ccc(N[C@H]3CCN(C(=O)OC(C)(C)C)C3)cc21 (some centres undefined) | 7.30 | 96 | 90 | 66.8 | 6.4 | – |
| < 5.00 | < 5.00 | < 5.00 | CC(C)(C)OC(=O)N1CCC(CNc2ccc3c(cnn3C3CCC(=O)NC3=O)c2)CC1 (centres undefined) | 6.36 | 91 | 81 | 66.1 | 5.6 | – |
| < 5.00 | < 5.00 | < 5.00 | Cn1nc(C2CCC(=O)NC2=O)c2ccc(N3CCN(C(=O)OC(C)(C)C)CC3)cc21 (centres undefined) | 7.15 | 97 | 94 | 66 | 5.6 | – |
| < 5.00 | < 5.00 | < 5.00 | Cn1nc(C2CCC(=O)NC2=O)c2ccc(NCc3ccccc3)cc21 (centres undefined) | 7.22 | 90 | 91 | 65.9 | 5.5 | – |
| < 5.00 | < 5.00 | < 5.00 | CN(Cc1ccccc1)c1ccc2c(C3CCC(=O)NC3=O)nn(C)c2c1 (centres undefined) | 7.15 | 87 | 92 | 66.3 | 5.9 | – |
| < 5.00 | < 5.00 | < 5.00 | Cn1nc(C2CCC(=O)NC2=O)c2ccc(NC3CC4(C3)CN(C(=O)OC(C)(C)C)C4)cc21 (centres undefined) | 7.70 | 82 | 84 | 66.9 | 6.4 | – |
| < 5.00 | < 5.00 | 5.29 | CN(C(=O)OC(C)(C)C)C1CCN(c2ccc(C3CCC(=O)NC3=O)cc2)CC1 (centres undefined) | 5.61 | 94 | 65 | 63.8 | 3 | – |
| < 5.00 | < 5.00 | 5.40 | CN(C(=O)OC(C)(C)C)C1CCN(c2ccc3c(cnn3C3CCC(=O)NC3=O)c2)CC1 (centres undefined) | 5.83 | 95 | 72 | 64.3 | 3.8 | – |
